Assay results published in PMC9535653 (ACS Omega, 2022).

Tests used:
Truncated C-domain ACE = assay: fluorimetric ACE activity assay, truncated C-domain; assay type: biochemical; settings: at micromolar concentrations under identical assay conditions
N-domain (ACE) = settings: read-out: Ki, N-domain, ref [20],[21]; cited from earlier work
C-domain of ACE = settings: ref [20],[21], cited from earlier work

Chain of Truncated C-domain ACE (P12821 643-1222 limits assumed): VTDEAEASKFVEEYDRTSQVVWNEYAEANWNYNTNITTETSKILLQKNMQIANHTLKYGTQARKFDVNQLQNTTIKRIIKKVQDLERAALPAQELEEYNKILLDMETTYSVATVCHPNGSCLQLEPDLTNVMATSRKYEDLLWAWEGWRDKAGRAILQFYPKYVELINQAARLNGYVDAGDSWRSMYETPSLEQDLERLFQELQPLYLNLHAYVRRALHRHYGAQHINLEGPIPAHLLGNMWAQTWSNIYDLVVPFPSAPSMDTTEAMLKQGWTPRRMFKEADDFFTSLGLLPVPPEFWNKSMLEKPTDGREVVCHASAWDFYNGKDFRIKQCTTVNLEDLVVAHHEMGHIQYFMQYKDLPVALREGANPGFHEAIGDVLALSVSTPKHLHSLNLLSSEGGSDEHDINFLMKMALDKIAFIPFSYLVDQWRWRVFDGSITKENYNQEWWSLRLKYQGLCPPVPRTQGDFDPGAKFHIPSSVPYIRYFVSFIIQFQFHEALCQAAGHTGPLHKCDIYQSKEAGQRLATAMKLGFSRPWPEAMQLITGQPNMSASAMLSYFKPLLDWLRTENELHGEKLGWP

Substance: (2-(((R)-1-(((Benzyloxy)carbonyl)amino)-2-phenylethyl)(hydroxy)phosphoryl)cyclopentane-1-carbonyl)-L-tryptophan [RXPA380]
- Inhibition of C-domain by parent (in words) (Truncated C-domain ACE): completely inhibits the C-domain at micromolar concentrations
- Ki (N-domain (ACE)): 10 µM
- potency and selectivity for C-domain of ACE (in words) (C-domain of ACE; C-domain versus N-domain): the most potent and selective C domain of ACE
- Ki (C-domain of ACE; read-out: Ki, C-domain, ACE C-domain): 0.003 µM
